Data: patent publication US20050143406A1, “Amino-substituted hypocrellins for use as sonosensitizers” (priority 2002, published 2005)
Where “and” joins values, the source holds several entries; their conditions need not be identical. Equal entries are not always repeated.

Experiments:
[1] = test system: EMT6 murine mastocytoma in vitro; assay: Photosensitizing potential: LD50 for a fixed dose of light; type: cell-based
[2] = test system: EMT6 murine mastocytoma in vitro; assay: Sonosensitizing potential: LD50 for a fixed dose of ultrasound; type: cell-based
[3] = test system: Human acute promyelocytic leukemia HL-60 cells; assay: Sonodynamic therapy survival assay, screening of sonosensitizers in vitro; type: cell-based; conditions: for Mean - DMSO Bg: mean survival relative to DMSO only (100.0); for Survival, % Mean / Survival, %: insonated HL-60 cells; for Survival, %: single determinations
Excerpt: This screening assay makes use of human promyelocytic leukemia cells growing in suspension culture. The transducer of an UltraMax ultrasound generator for physiotherapy was adapted for in vitro studies by fitting a tissue culture-compatible Teflon cuff such that cell suspensions could be conveniently insonated. The following diagrams represent the equipment employed.
Human acute promyelocytic leukemia HL-60 cells (ATCC No CCL-240) were maintained in RPMI 1640 cell culture medium supplemented with 7 g/L of L-glutamine (Gibco, Grand Island N.Y.), 10% fetal bovine serum (Cansera), and 1% penicillin-streptomycin-neomycin (Gibco), buffered with NaHCO3 to pH 7.4. They were incubated at 37° C. in a humidified atmosphere of 95% air, 5% CO2, and maintained at cell densities between 2.0×10^5 to 1.0×10^6 cells/mL. For insonations in the presence of Hp (a porphyrin positive control) or hypocrellin test compounds, cells were brought to approximately 1.0×10^6 cells/mL, incubated with the putative sensitizer at 37° C. for 2 hours in T-flasks, equilibrated for 30 minutes at room temperature, resuspended and insonated. All procedures took place in low-light conditions to avoid spurious photosensitization. Cells were gently resuspended for 10 seconds before insonation. […] Stock sensitizer was prepared by slowly adding RPMI-1640 medium to the appropriate volume at final sensitizer concentrations between 0.3 mM and 1 mM.
Aliquots of cells were withdrawn prior to insonation to serve as the original value for cell survival. Cells were suspended in Isoton diluent and counted in a Coulter electronic particle counter. Insonation proceeded at a power density of 2 W, at times varying between 3- and 10 seconds to effect cytotoxicity by sonosensitization. Control cultures were subjected to the appropriate dose of ultrasound, in the presence of DMSO, and the absence of the test sonosensitizer. Following ultrasound treatment, aliquots of the cell suspension were withdrawn for counting as above, and the survival fraction, S, was calculated as the fraction: S=(Cell number following insonation/cell number prior to insonation)×100. Results:
HL-60 cells were treated with perylenequinone sensitizers and insonated as described above. The surviving fractions were plotted against sensitizer concentration. […] Cell survival decreased steeply over the next two decades of sensitizer concentration.

[4] = test system: syngeneic murine mastocytoma, EMT6; assay: Efficiency of DMHB in vivo: SDT of EMT6 tumors in Balb/c mice; conditions: Balb/c mice with EMT6 flank tumors, DMHB i.p. 50 μM total body concentration, ultrasound 1 MHz 0.2 W/cm^2 10 min after 48 h; FIG. 2
Description: We explored the use of DMHB in Balb/c mice engrafted in the flank with the syngeneic murine mastocytoma, EMT6. The mice were inoculated subcutaneously with 1.0×10^5 EMT6 tumor cells in sterile injectable saline. Within 7 days, detectable tumors are evident. Mice were randomized into a control group and a SDT treatment group, which differed only in that the sonosensitizer was not present in the drug solvent (see below). Fresh DMHB was dissolved in mineral oil, and injected intraperitoneally into each mouse to achieve a total body concentration of 50 μM. Following a an interval of 48 h for biodistribution of the sensitizer, the mice were lightly anesthetized with Metafane, and placed on a 2% agarose gel, with the tumor lying in a depression of the gel which was juxtaposed to the transducer of an UltraMax physiotherapy ultrasound generator. Ultrasound was applied at a frequency of 1 MHz, at a power density of 0.2 W/cm^2, for a 10-minute period. The maximum energy applied to the tumor volume was approximately 500 J. Tumor growth was monitored daily by caliper measurements in three mutually orthogonal planes. Tumor volume was calculated from the expression, V=π/6×d1×d2×d3 where V=volume (mm^3), and d1,2, and 3 are the three mutually orthogonal diameters. The endpoint for the assay was the proportion of tumors reaching 4 times treatment volume, which was plotted as a function of time. […]

[5] = HL-60 cells, fixed dose and energy of ultrasound

## COc1c2c3c4c(c(OC)c(=O)c5c(O)cc(OC)c(c6c(OC)cc(O)c(c1=O)c63)c54)[C@@H](C(C)=O)[C@@](C)(O)C2 [HA, Hypocrellin A, reference compound]
[1]
  Photosensitizing Potential (Molar Concentration which exerts LD50): 4.0 µM
[2]
  Sonosensitizing Potential (Molar Concentration which exerts LD50): None

## Demethylated-HB [DMHBa]
[1]
  Photosensitizing Potential (Molar Concentration which exerts LD50): 3.0 µM
[2]
  Sonosensitizing Potential (Molar Concentration which exerts LD50): 1.0 mM

## 2-morpholino-ethylaminated HB [HBAM-R1]
[1]
  Photosensitizing Potential (Molar Concentration which exerts LD50): 4.0 µM
[2]
  Sonosensitizing Potential (Molar Concentration which exerts LD50): None

## CCCCNc1c2c3c4c(c(OC)c(=O)c5c(O)cc(OC)c(c6c(OC)cc(O)c(c1=O)c63)c54)CC(C)=C2C(C)=O [DMHBb, 2-butylamino-2-demethoxy-Hypocrellin B]
[1]
  Photosensitizing Potential (Molar Concentration which exerts LD50): 0.1 µM
[2]
  Sonosensitizing Potential (Molar Concentration which exerts LD50): 0.1 mM

## 2-(N,N-dimethyl-amino) propylamine-Hypocrellin B [HBDD-R1]
[2]
  Sonosensitizing Potential (Molar Concentration which exerts LD50): 1.0 mM

## CC1=C(CCC(=O)O)c2cc3[nH]c(cc4nc(cc5[nH]c(cc1n2)c(C)c5C(C)O)C(C)=C4C(C)O)c(C)c3CCC(=O)O (stereo not shown) [Hp, hematoporphyrin, reference compound]
[3]; [5]
  LD50: 1.0 mM

## Ethylenediamne-Hypocrellin B [HBED-R2]
[1]
  Photosensitizing Potential (Molar Concentration which exerts LD50): 4.0 µM
[2]
  Sonosensitizing Potential (Molar Concentration which exerts LD50): None

## demethoxy hypocrellin B [DMHB]
[3]; HL-60 cells
  maximum sonotoxic effect compared with Hp control: comparable to that of the Hp control
[3]; [5]
  LD50: approximately 100 μM
  difference of LD50 versus hematoporphyrin (Hp) control: 10 fold
[3]; HL-60 cells, up to 100 μM
  sonotoxicity: negligible sonotoxicity
[3]; 1 μM DMHB
  Mean - DMSO Bg: 83.0%
[3]; 10 μM DMHB
  Mean - DMSO Bg: 71.1%
[3]; 100 μM DMHB
  Mean - DMSO Bg: 63.2%
[3]; DMSO + 1 μM DMHB
  Survival, % Mean: 41.1%
  Survival, %: 41.8% and 48.2% and 33.5%
[3]; DMSO + 10 μM DMHB
  Survival, % Mean: 35.2%
  Survival, %: 37.3% and 43.3% and 24.9%
[3]; DMSO + 100 μM DMHB
  Survival, % Mean: 31.3%
  Survival, %: 30.7% and 39.4% and 23.7%
[4]
  tumor growth: tumor growth is inhibited

## Methylamine-Hypocrellin B [HBMA-IV]
[1]
  Photosensitizing Potential (Molar Concentration which exerts LD50): 1.0 µM
[2]
  Sonosensitizing Potential (Molar Concentration which exerts LD50): None
